Measurements as given in US8283308B2, “Copolymer-stabilized emulsions” (The Regents of the University of California, priority 2007, dated 2012).

Assays:
Assay type in all cases: physicochemical
[1] = Emulsion droplet size by dynamic light scattering (DLS); details: N=6, p=130 psi, φ=0.20
Description: The diameters of emulsion droplets were estimated by dynamic light scattering (DLS) with a Photocor-FC board and software. The samples were diluted to obtain an intensity reading of between 1×10^5 and 6×10^5. Each measurement was performed at a scattering angle of 90° for 500 seconds, with linear channel spacing and an adjustable baseline. The fitting procedure used was cumulant analysis with an adjustable baseline to fit the data and calculate average droplet radii.

[2] = Emulsification activity, emulsion type and stability
Description: The freeze-dried K40rL10 copolypeptide was first dissolved in de-ionized water at the desired concentration. The range of block copolypeptide concentrations, C, varied from 1.0×10^−4 mM to 1.7 mM. Silicone oil (10 cSt, Gelest PDMS) was added to give the desired volume fraction φ of oil to the continuous phase (0.01≦φ≦0.8). A premix emulsion was prepared by applying shear using either a handheld homogenizer (IKA Ultra-Turrax T8 with the S8N-8G dispersing element) or a handheld ultrasonic homogenizer (Cole-Palmer 4710 Series Model ASI at an output of 35-40%). This premix emulsion was then passed through a M-110S Microfluidizer® Processor with a 75 μm stainless steel/ceramic interaction chamber and an input air pressure p=130 psi. The emulsion was collected at the product outlet of the microfluidic homogenizer, and then passed through the microfluidic homogenizer five more passes (N=6 total), which decreased the average droplet radius and increased the monodispersity of the sample. We have formed double emulsions of copolypeptide, water, and various oils other than 10 cSt and 100 cSt silicone oil, including soybean oil and methyl oleate.
Diblock copolypeptides were screened for emulsification activity by adding PDMS silicone oil to aqueous Kx(rac-L)y solutions (Table 1, FIGS. 2A-2B, 11A). […]

[3] = Critical aggregation concentration by pyrene fluorescence; details: pyrene fluorescence at 20° C.
[4] = Emulsion droplet sizes from cryo-TEM (CTEM) images
Description: For certain applications, further size separation may be desired. For these applications, we could also use centrifugation to fractionate the emulsion and isolate emulsions of a desired size range. To accomplish such separation, a 1.5 mM K40rL20 emulsion (φ=0.2) that had been passed through the microfluidic homogenizer for six passes (N=6) was placed in a desktop centrifuge set to a low speed of 3,500 rpm (revolutions per minute) for 4 hours. Due to the differences in mass densities of the droplet structures with respect to the continuous liquid phase, the larger droplets rose to the top as a plug more rapidly and could be separated out easily from the extremely dilute suspension of smaller droplets below (i.e. the remnants). We were able to separate out larger droplets that had diameters greater than 300 nm. The remnant suspension had droplet diameters less than 300 nm, therefore, a higher speed centrifuge was needed to further fractionate the sizes of the droplets. The remnant suspension was placed in an ultracentrifuge and centrifuged […] at 20,000 rpm.
A 1.5 mM K40rL20 emulsion (prepared as above) was centrifuged in a 15 mL plastic centrifuge tube for 24 h at 3,500 rpm using an IEC HN-S tabletop centrifuge. A 0.5 mm plug formed, and was separated from the remnants. A plug was formed at the top of the tube (droplet sizes >300 nm, by cryo-TEM), due the different densities of silicone oil and water (0.973 g/mL for 10 cSt PDMS silicone oil vs. 1.0 g/mL for water). The plug was isolated from the rest of the sample, designated as primary remnants, and these primary remnants were further fractionated at 20,000 rpm for 4 hrs using a Beckman L8-55 ultracentrifuge. A plug formed on the top of the suspension (droplet sizes ranging from 30 nm to 200 nm, by cryo-TEM) along with droplets remaining in suspension as secondary remnants (droplet sizes ranging from 10 nm to 30 nm, by cryo-TEM).
Each emulsion sample was diluted tenfold with DI water prior to imaging. An aliquot of each sample (5 μL) was then placed on a carbon grid. The grid was loaded into a Vitrobot (FEI) automated vitrification device for automated sample blotting and vitrification in liquid ethane. The grid was stored under liquid nitrogen and then placed, using a cold stage, in a Phillips Tecnai F20 electron microscope with an accelerating voltage of 120 kV. Images were obtained on a Teitz SCX slow-scan CCD detector coupled to the Leginon software package.
PDMS silicone oil (10 cSt) was added to give the desired volume fraction A of oil to the continuous phase (0.05<φ<0.50). A microscale emulsion (i.e. “premix” emulsion) was prepared by either mixing for 1 minute using a handheld homogenizer (IKA Ultra-Turrax T8 with the S8N-8G dispersing element) or by mixing for 10 seconds using a handheld ultrasonic tip homogenizer (Cole-Parmer 4710 Series Model ASI at an output of 35-40%). This emulsion was then passed through a M-110S Microfluidizer® Processor with a 75 μm stainless steel/ceramic interaction chamber and an input air pressure p=130 psi. The emulsion was collected at the product outlet, and then passed through the microfluidic homogenizer repeatedly for a total of six passes (N=6), which decreased the average droplet radius (e.g. of the single droplets in a simple emulsion and of the outer and inner droplets in a double emulsion) and increased the monodispersity of the droplets in the emulsions. A similar protocol was used for emulsions generated using other block copolypeptide surfactants (Table 1. FIGS. 7A-7C). The ratio given by the inner droplet radius divided by the outer droplet radius (labeled as “I/O ratio”) was relatively uniform for different hydrophobic chain lengths at approximately 0.5 (Table 1, FIG. 7D). Other amphiphilic block copolypeptides, where either the lysine or leucine domains were substituted with different hydrophilic or hydrophobic residues, respectively, were also found to form double emulsions (FIGS. 8A-8D).

[5] = Oil/water interfacial tension, Du Nouy ring method; details: 10 cSt PDMS / 0.1 mM block copolypeptide solution, pull rate 0.01 mm/s, 25° C.
[6] = sample fractionated from larger droplets by centrifugation followed by ultracentrifugation

Poly(L-lysine-HBr)40-b-poly(rac-leucine)20 [K40(rac-L)20]
average droplet radius ([1]; copolypeptide concentration 0.1 mM): about 400 nm
average droplet radius ([1]; copolypeptide concentration 1.5 mM): about 160 nm
type of emulsion formed ([2]; PDMS silicone oil, microscopy / cryo-TEM): formation of double emulsions
emulsification of other immiscible liquids ([2]; dodecane, soybean oil, methyl oleate, 1 mM in water): gave emulsions
CAC [3]: 970 nM
droplet diameters of remnant suspension after low speed centrifugation ([4]; 1.5 mM emulsion, 3,500 rpm): less than 300 nm
droplet diameters ([4]; after passage six times through microfluidic homogenizer): ten to a few hundred
Inner/Outer Diameter Ratio ([4]; average of at least 50 droplets from CTEM, N=6, p=130 psi, C=1.0 mM, φ=0.20): 0.57
Droplet Diameter (nm) ([4]; outer droplets, average of at least 50 droplets from CTEM, microfluidic homogenizer N=6, p=130 psi, C=1.0 mM, φ=0.20): 120 nm
Droplet Diameter (nm) [4, 6]: 60 nm
Inner/Outer Diameter Ratio [4, 6]: 0.45
smallest double emulsion droplets, diameter ([4]; ultrasonic homogenization): ca. 400 nm
Interfacial Tension (dyne/cm) [5]: 25.3 dyne/cm
